US20170021042A1, “Flow-Through Pathogen Reduction” (Terumo BCT Biotechnologies, LLC, priority 2015, published 2017)
Marks after values point to notes of the source that are not given here.

Legend:
PhiX174 [1] = assay: PhiX174 reduction in plasma with riboflavin, UV-illuminated flow-through flow cells; conditions: for pathogen reduction (log reduction of PhiX174): plasma + riboflavin, irradiance 4.5 mW/cm2
Source text: The goal of this study is to obtain insight into the correlation between flow rate, channel thickness and pathogen reduction. The flow cells in this study have a relatively thicker channel and different flow configurations.
(§1) The flow cell mounts in a fixture (e.g., flow cell holder) which maintains channel thickness by applying pressure from both the top and bottom. The fixture houses eight illumination lamps driven at 800 mA with four on top and four on bottom producing an irradiance of 4.5 mW/cm2. Product can be flowed through the flow-cell, which is mounted adjacent to the light source, and then samples are taken on the back end.
The increased channel thickness results in decreased fluidic impedance requiring the use of a peristaltic pump to control flow rate instead of by gravity. The pump is calibrated prior to use to ensure flow rate accuracy.
1.5.5. Submit one sample tube for each sample for viral titer and save the other two samples for later analysis.
Below are the pathogen reduction results. In Table 6, cells with bold text indicate a sample that is within the limit of detection and cells with an asterisk indicate a sample that has six or less PhiX174 colonies at a one log dilution and is outside the limit of detection. Cells with underlined text indicate a sample is technically outside the limit of detection but has PhiX174 colonies allowing for the inferred calculation of pathogen reduction. Each cell also has dwell time in seconds and predicted dose. The lower predicted dose value takes into account the transmissivity of the plasma and flow cell. The higher predicted dose assumes that all light incident on the flow cell is absorbed by the plasma.

PhiX174 [2] = assay: PhiX174 reduction in whole blood with riboflavin, UV-illuminated flow-through flow cells
Source text: This study is designed to obtain insight into the correlation between flow rate, channel thickness and pathogen reduction of whole blood. The flow cells in this study have thin channels and different flow configurations. Thin channels are used because whole blood is less transmissive than plasma.
as §1, with “(e.g. a” for “(e.g.,”, “mW/cm^2.” for “mW/cm2.”, “can be” for “are”
A peristaltic pump to control flow rate is used with the pump will located after the flow cell so that negative pressure is applied to the flow cell by the pump instead of positive pressure. The pump is calibrated prior to use to ensure flow rate accuracy.
Two flow cell configurations being tested may be referred to as “8p” and “4s×2p”. The 8p configuration has all the channels in parallel; therefore the fluid crosses one channel before exiting the flow cell. The 4s×2p configuration requires the fluid to cross four channels in series before exiting the flow cell. […]

For `Cc1cc2nc3c(=O)[nH]c(=O)nc-3n(C[C@H](O)[C@H](O)[C@H](O)CO)c2cc1C` [riboflavin], the “pathogen reduction (log reduction of PhiX174)” value (PhiX174 [1]; flow cell A, gap 3/1000" (0.0762 mm), flow rate 20 ml/min, dwell 2.9 sec) was “(~3.4 logs)*”, the “pathogen reduction (log reduction of PhiX174)” value (PhiX174 [1]; flow cell A, gap 3/1000" (0.0762 mm), flow rate 40 ml/min, dwell 1.5 sec) was “(2.8 logs)*” and the “pathogen reduction (log reduction of PhiX174)” value (PhiX174 [1]; flow cell B, gap 5/1000" (0.127 mm), flow rate 20 ml/min, dwell 4.9 sec) was “(~3.6 logs)*”. The “pathogen reduction (log reduction of PhiX174)” value (PhiX174 [1]; flow cell B, gap 5/1000" (0.127 mm), flow rate 40 ml/min, dwell 2.43 sec) was “(2.6 logs)*”, the “pathogen reduction (log reduction of PhiX174)” value (PhiX174 [1]; flow cell C, gap 12/1000" (0.305 mm), flow rate 40 ml/min, dwell 5.8 sec) was “(~3.9 logs)*” and the “pathogen reduction (log reduction of PhiX174)” value (PhiX174 [1]; flow cell C, gap 12/1000" (0.305 mm), flow rate 80 ml/min, dwell 2.9 sec) was “(2.5 logs)*”. The “pathogen reduction (log reduction of PhiX174)” value (PhiX174 [1]; flow cell D, gap 20/1000" (0.508 mm), flow rate 80 ml/min, dwell 4.7 sec) was “(2.9 logs)*”, the “pathogen reduction, in words” value (PhiX174 [1]; plasma and riboflavin, all flow cells A-D) was “adequate pathogen reduction” and the “pathogen reduction, in words” value (PhiX174 [2]) was “within the acceptable pathogen reduction range”. For the same compound, the “hemolysis, difference from hold control” value (whole blood) was at most 0.06 % hemolysis.
